Measurements reported in ChEMBL document CHEMBL2331155, “Polycyclic hybrid isoprenoids from a reed rhizosphere soil derived Streptomyces sp. CHQ-64” (J Nat Prod, 2013).
Calls of active or inactive are those of the source. No cut-off for these calls is given here.

What was measured:
[1] = tested on: A2780; experiment: Cytotoxicity against human A2780 cells by MTT assay; assay type: functional, cell-based
[2] = tested on: HCT-8; experiment: Cytotoxicity against human HCT8 cells by MTT assay; assay type: functional, cell-based
[3] = biological target: T1, DNA topoisomerase 1 (Homo sapiens) (UniProt P11387); experiment: Binding affinity to topoisomerase 1 (unknown origin)
T1 sequence (whole entry): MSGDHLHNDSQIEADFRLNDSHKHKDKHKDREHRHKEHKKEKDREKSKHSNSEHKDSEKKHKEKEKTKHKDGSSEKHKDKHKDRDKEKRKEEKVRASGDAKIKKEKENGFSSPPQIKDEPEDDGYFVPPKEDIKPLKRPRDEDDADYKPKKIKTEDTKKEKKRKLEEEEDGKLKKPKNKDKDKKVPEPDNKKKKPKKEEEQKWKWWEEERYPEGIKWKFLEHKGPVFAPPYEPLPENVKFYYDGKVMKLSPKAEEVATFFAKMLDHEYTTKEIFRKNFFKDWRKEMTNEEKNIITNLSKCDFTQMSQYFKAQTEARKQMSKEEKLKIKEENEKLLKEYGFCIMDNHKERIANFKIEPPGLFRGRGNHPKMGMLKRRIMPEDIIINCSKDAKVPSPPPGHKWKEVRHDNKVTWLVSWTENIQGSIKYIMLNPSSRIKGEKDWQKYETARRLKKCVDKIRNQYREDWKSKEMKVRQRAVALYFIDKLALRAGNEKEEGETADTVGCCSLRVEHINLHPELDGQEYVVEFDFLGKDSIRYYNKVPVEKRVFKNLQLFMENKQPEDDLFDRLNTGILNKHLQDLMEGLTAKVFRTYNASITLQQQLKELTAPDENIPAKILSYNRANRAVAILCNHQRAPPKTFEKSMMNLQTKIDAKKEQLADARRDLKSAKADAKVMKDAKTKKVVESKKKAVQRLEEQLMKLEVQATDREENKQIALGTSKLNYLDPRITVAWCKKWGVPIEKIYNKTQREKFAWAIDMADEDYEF

[4] = biological target: Protein kinase C alpha type (Homo sapiens) (UniProt P17252); experiment: Binding affinity to PKC alpha (unknown origin)
[5] = tested on: Bel-7402; experiment: Cytotoxicity against human Bel7402 cells by MTT assay; assay type: functional, cell-based
[6] = species: Homo sapiens; experiment: Inhibition of NF-kappaB (unknown origin) expressed in LPS-stimulated Raw 264.7 cells pretreated for 2 hrs measured after 4 hrs of LPS-challenge by luciferase reporter assay; assay type: cell-based
[7] = tested on: A549; experiment: Cytotoxicity against human A549 cells by MTT assay; assay type: functional, cell-based
[8] = tested on: BGC-823; experiment: Cytotoxicity against human BGC823 cells by MTT assay; assay type: functional, cell-based

Row | SMILES | IC50 [1] [µM] | IC50 [2] [µM] | Activity [3] | Activity [4] | IC50 [5] [µM] | inhibition [6] | IC50 [7] [µM] | IC50 [8] [µM]
1 | CC(C)[C@H]1C(=O)N[C@@H](C[C@]23C[C@H]4C(=C[C@H]2N(C=O)c2ccccc23)CC[C@H]2C(C)(C)CCC[C@]42C)C(=O)N1C (mixture of isomers) [INDOTERTINE B] | > 10 | 6.96 | inactive | inactive | > 10 | inactive | 4.88 | > 10
2 | C=C1CC[C@H]2C(C)(C)CCC[C@]2(C)[C@H]1C[C@@]12C[C@H]3C(=O)N4CCC[C@H]4C(=O)N3[C@@H]1Nc1ccccc12 [DRIMENTINE C] | > 10 | > 10 | inactive | inactive | > 10 | inactive | > 10 | > 10
3 | C=C1CC[C@H]2C(C)(C)CCC[C@]2(C)[C@H]1C[C@@]12C[C@H]3C(=O)N(C)[C@@H](C(C)C)C(=O)N3[C@@H]1N(C=O)c1ccccc12 [DRIMENTINE H] | > 10 | > 10 | inactive | inactive | > 10 | inactive | > 10 | > 10
4 | CC(=O)O[C@H]1C(=O)[C@@]2(C)[C@H]([C@H](OC(=O)c3ccccc3)[C@]3(O)C[C@H](OC(=O)[C@H](O)[C@@H](NC(=O)c4ccccc4)c4ccccc4)C(C)=C1C3(C)C)[C@]1(OC(C)=O)CO[C@@H]1C[C@@H]2O [PACLITAXEL] | < 0.001 | – | – | – | 0.006 | – | – | < 0.001
